The values that follow come from US7341867B2, “Human preprotachykinin gene promoter” (University of Medicine & Dentistry of New Jersey, priority 1999, dated 2008).

What all share (type): cell-based, human
One assay deals with β-PPT-I mRNA. The assay can be described thus: Quantitative RT-PCR in stimulated bone marrow stroma. The method, then: (§1) In a second embodiment of the present invention, bone marrow stroma was stimulated in serum-free α-MEM supplemented with Insulin-transferrin-selenium-A (Life Technologies). Quantitative RT-PCR with total RNA, extracted from bone marrow stroma and construction of standard DNA was performed as described in Singh, D., supra. The end sequences of the standard DNA contained gene-specific sequences that are complementary for the reaction primers. The primers in the standard DNA flank neutral DNA. Total RNA (2 μg) was reverse transcribed and 200 ng cDNA used in PCR with specific oligonucleotide primers for PPT-I, NK-1 or NK-2. Standard DNA, log10 fold dilutions, ranged between 10^−2 to 10^−6 attomole/L. Each unknown sample was assayed with a particular concentration of standard DNA in the same reaction tube. PCR products (10 μl) were separated by electrophoresis on 1.5% agarose containing ethidium bromide and the densities of the DNA bands quantitated with a Fluorimager (Molecular Dynamics, Sunnyvale, Calif.) and then analyzed with ImageQuant software. A standard curve was established for each unknown sample: band densities of unknown/standard DNA vs. Log10 standard DNA concentration was used to determine the concentration of RNA molecules in the unknown samples. The concentration of the unknown sample was selected at the concentration in which the ratio of the unknown and standard were equivalent.
(§2) Transfected bone marrow stroma was stimulated with optimal concentrations of IL-1α (2.5 ng/ml), SCF (8 ng/ml) or 1 nM substance P, SP (Sigma, St Louis, Mo.) and/or 10 nM NK-1-specific antagonist (CP-99,994) in α-MEM with 2% FCS. In other embodiments, bone marrow stroma was stimulated with 5 μg/ml forskolin, FK (Sigma) for 2 and 5 h. SCF was purchased from R&D Systems (Minneapolis, Minn.) and IL-1α was obtained from Hoffman LaRoche, Nutley, N.J. Pfizer, Inc. (Groton, Conn.) provided CP-99,994. Substance P and CP-99,994 were dissolved and stored as described in Ramewshwar et al (1996), supra. Optimal parameters were determined with dose-response and time-course studies.
Confluent bone marrow stroma was stimulated with 25 ng/ml rhIL-1α or 10 ng/ml SCF for 24 h. Poly A RNA was isolated from total RNA by selection (2×) on oligo-dT cellulose (Life Technologies). The cellulose column was washed once with 10 mM Tris, pH 7.0; 0.5 M NaCl; […] and once with 10 mM Tris, pH 7.0; 0.2 M NaCl; […]. Poly A RNA was eluted with 10 mM Tris (pH 7.0) and […]. RNA was precipitated by standard techniques and then resuspended in DEPC-treated water. The purity was verified by the absence of rRNA.

The subject of another assay is NK-1 mRNA. The assay is described as above. The method, then: as §1, §2
Another assay has as its system NK-2 mRNA. Described as above. As to conditions: BM stroma; 8 ng/ml SCF or 2.5 ng/ml IL-1a; 16 h; serum-free α-MEM. The method, then: as §1, §2
Assay [1] has as its system PPT-I promoter (Upstream/N0). The assay can be described thus: Luciferase reporter gene assay, pGL3-Upstream/N0 in transfected bone marrow stroma. The method, then: as §2
pGL3-basic with inserts of different fragments from PPT-I-p1.2 was co-transfected with pβ-gal-Control (0.5 μg each) in 80% confluent bone marrow stroma using SuperFect (Qiagen, Valencia, Calif.). After 48 h cells were scraped in 30 μl 250 mM Tris (pH 8.0) and then lysed by freezing and thawing in a dry ice/ethanol bath. Cell-free lysates (24 μl) were obtained by centrifugation at 15,000 g for 5 min at 4° C. and then diluted with 5× cell culture lysis buffer (Promega). Luciferase and β-gal activities were quantitated with 10 μl of lysates using Luciferase assay system (Promega) and Luminescent β-galactosidase detection kit II (Clontech) respectively. In the experimental model, the ratios of Luciferase/β-gal in cells transfected with vector alone ranged from 0.18 to 0.19 and was normalized to 1. Because cytokines induce the promoter upstream of β-gal, in cytokine-stimulated cells, luciferase activity was presented/mg of total protein the levels normalized with stroma transfected with vector alone. Total protein was determined using standard techniquees well known in the art.
Mutations were performed with a mutagenesis kit (Stratagene, La Jolla, Calif.). The desired mutant sequences (Table 1) were synthesized within 40 nt in the forward and reverse directions and then used in PCR with pGL3 containing wild type Upstream/N0. After PCR amplification, mutation was verified by identification of Apa L1 within CRE-like mutant and the loss of Xho 1 in CRE mutant.
Background: A reporter such as luciferase makes a cellular process visible.

The subject of another assay is SP-IR. Description: ELISA of immunoreactive-SP (SP-IR) in stroma cell extracts. The method, then: Competitive ELISA quantitated SP-IR in supernatants from breast cancer cell cultures that were 80% confluent. Cell-free supernatants were stored in siliconized tubes at −70° C. until ready to be assayed. Streptavidin, […] in distilled water, was added to Immulon 96-well plates (Dynatech Laboratories Inc., Chantilly, Va.). Streptavidin was allowed to dry at 37° C. After this, wells were blocked with 5% nonfat dry milk for 2 hr at room temperature and then washed with PBS containing 0.1% Tween-20 (PBST). Chiron Mimotopes (Emeryville, Calif.) synthesized biotinylated-SP, with spacer arm. Stock solution was diluted in 0.1% (v/v) acetic acid at 5 mg/ml, aliquoted in siliconized tubes and stored at −70° C. Working solution was diluted at 750 ng/ml with PBS containing 0.1% (w/v) BSA and 0.1% (w/v) sodium azide. Biotinylated-SP ([…]) was added to wells and plates incubated for 1 hr at room temperature. Plates were washed (×4) with PBST. Competition by the […] and soluble SP for anti-SP forms the basis for the next step. Equal volume (50 μl) of optimum rabbit anti-SP (1/15,000), and unknown or standard solution were added to wells. Plates were incubated at room temperature for 1 hr. Each unknown was assayed in triplicate as undiluted and three serial dilutions. Bound anti-SP was detected by incubating for 1 hr with optimum (150 ng/ml) AP-goat antirabbit IgG. Color was developed with Sigma 104 phosphatase substrate as described (Rameshwar, P. et al. (1996), Blood 88, 98-106). A standard curve was developed with O.D. (405 nm) versus 12 serial dilutions of standard SP that ranged from 100 to 0.08 ng/ml. […]
In the next set of experiments, we investigated the possibility for an indirect mechanism in the activation of PPT-I promoter. […] Since SCF induces endogenous PPT-I (Table 6), we used ELISA (Singh, D. et al, supra) to quantitate the level of its major translation product, immunoreactive-SP (SP-IR), in stroma cell extracts. […] To address this, we incubated the SCF-stimulated cells with 10 nM of an NK-1-specific antagonist (CP-99,994) and then quantitated luciferase activity. […]
(In general: An ELISA detects its analyte on a solid surface through an enzyme-linked reagent.)

[2] abbreviates: BM stroma, 8 ng/ml SCF or 2.5 ng/ml IL-1a, 16 h, serum-free α-MEM.
The mark [3] stands for this setting: stroma stimulated with SCF, five experiments.

For “SCF: stem cell factor, cytokine purchased from R&D Systems”, the “β-PPT-I (molecules/μg total RNA)” value in the assay with β-PPT-I mRNA (BM stroma, 1 nM SP, 8 ng/ml SCF and/or 10 nM CP-99,994, 16 h) is given as 1324 ± 76 molecules/μg total RNA. For the same substance, the “β-PPT-I mRNA” value in the assay on β-PPT-I mRNA (setting [2]) was 1336 ± 134 Molecules/μg total RNA. The “molecules of β-PPT-I/μg poly A” value in the assay on β-PPT-I mRNA (poly A RNA from stroma stimulated with 25 ng/ml rhIL-1α or 10 ng/ml SCF for 24 h, n=6) is given as 134,340±545 molecules of β-PPT-I/μg poly A. Further, the “NK-1 mRNA” value in the assay with NK-1 mRNA (setting [2]) was determined as 5253 ± 170 Molecules/μg total RNA. Moreover, the NK-1 induced in the assay with NK-1 mRNA (optimal SCF for 36 h) is on record as 5052±50 molecules/μg total RNA. For the same substance, the “NK-2 mRNA” value with NK-2 mRNA is reported as 273 ± 19 Molecules/μg total RNA. Also, the “increase in luciferase activities compared to unstimulated cells” value in assay [1] (pGL3-Upstream/N0 wild type, optimal SCF or IL-1a, 10 h) was found to be 4 fold. Further, the “induction of luciferase in cells transfected with the double mutants” value in assay [1] (pGL3-Upstream/N0 with mutant CRE and CRE-like) is recorded as “no significant induction”. The “SP-IR in stromal extracts” value in the assay with SP-IR (SCF-stimulated, after 36 h, n=5, ±SD) came out at 115 ± 8 pg/mL. Further, in the assay on SP-IR (setting [3]), the “SP-IR at 4 h post-transfection” value is 122 ± 14 pg/mL and the “SP-IR at time 0 post-transfection” value was found to be 110 ± 18 pg/mL.
